We go through one molecule from patent publication US20230117680A1, “CYCLOPHILIN D INHIBITORS AND USES THEREOF” (The Broad Institute, Inc., priority 2019, published 2023).

Holding throughout (format): biochemical
Holding throughout (settings): result in words

In one experiment the target is T1, CypG (Homo sapiens, UniProt Q13427).
T1 sequence (Q13427 1-754): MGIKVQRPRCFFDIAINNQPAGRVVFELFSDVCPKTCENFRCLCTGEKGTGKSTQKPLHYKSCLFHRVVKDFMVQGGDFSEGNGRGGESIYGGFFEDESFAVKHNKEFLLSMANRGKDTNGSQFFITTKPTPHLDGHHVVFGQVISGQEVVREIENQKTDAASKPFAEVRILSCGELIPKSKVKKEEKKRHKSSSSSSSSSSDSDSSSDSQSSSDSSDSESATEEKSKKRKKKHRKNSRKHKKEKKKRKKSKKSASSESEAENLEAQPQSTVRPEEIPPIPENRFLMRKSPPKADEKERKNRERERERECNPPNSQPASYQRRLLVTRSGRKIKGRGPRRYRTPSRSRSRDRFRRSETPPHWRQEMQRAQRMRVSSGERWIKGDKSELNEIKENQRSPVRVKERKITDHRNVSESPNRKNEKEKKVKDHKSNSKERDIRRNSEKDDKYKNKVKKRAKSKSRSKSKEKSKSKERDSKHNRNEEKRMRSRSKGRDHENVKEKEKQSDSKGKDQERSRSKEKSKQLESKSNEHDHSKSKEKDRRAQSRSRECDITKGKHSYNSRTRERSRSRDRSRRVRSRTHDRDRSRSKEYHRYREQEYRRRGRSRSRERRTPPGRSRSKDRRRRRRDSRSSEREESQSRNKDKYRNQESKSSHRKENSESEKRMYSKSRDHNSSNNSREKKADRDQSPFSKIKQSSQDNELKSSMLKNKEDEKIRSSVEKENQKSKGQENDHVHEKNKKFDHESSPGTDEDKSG
Kind of experiment: chymotrypsin coupled PPIase assay, CypG inhibition. The procedure: (§1) Following the synthesis of the indicated library members, in vitro inhibition (IC50) assays of these hits were conducted to obtain IC50 inhibitory data. For the IC50 assays, a chymotrypsin coupled PPIase assay using Suc-AAPF-AMC as the peptide substrate was used, whereby isomerization of a peptide substrate Suc-AAPF-AMC from the cis to trans conformation allowed for proteolysis via excess a-chymotrypsin, releasing the C-terminal coumarin fluorophore. […] Other non-inhibitor library members were also checked for binding via SPR, but produced the same profile as the prolyl isomerase assay.
(§2) Subsequently, to determine if the compounds could both access the S2 pocket and display CypD specificity, JOMBtrans and compound 49 were screened against the 10 other cyclophilins with reported prolyl isomerase activity. […] Co-crystal structures of JOMBtrans and 49 were solved with CypD. […] Three further H-bonds with the macrocycle's backbone and CypD were observed along with a cation-n interaction. […] The benzyl group on the piperidine ring altered the conformation of the macrocycle to open up two new hydrogen bonding interactions with CypD. […] This improvement in specificity compared to JOMBtrans signified that more CypD specific compounds can be garnered by derivatization into the S2 pocket.

Another experiment addresses T2, PPWD1 (Homo sapiens, UniProt Q96BP3).
T2 sequence (Q96BP3 1-646): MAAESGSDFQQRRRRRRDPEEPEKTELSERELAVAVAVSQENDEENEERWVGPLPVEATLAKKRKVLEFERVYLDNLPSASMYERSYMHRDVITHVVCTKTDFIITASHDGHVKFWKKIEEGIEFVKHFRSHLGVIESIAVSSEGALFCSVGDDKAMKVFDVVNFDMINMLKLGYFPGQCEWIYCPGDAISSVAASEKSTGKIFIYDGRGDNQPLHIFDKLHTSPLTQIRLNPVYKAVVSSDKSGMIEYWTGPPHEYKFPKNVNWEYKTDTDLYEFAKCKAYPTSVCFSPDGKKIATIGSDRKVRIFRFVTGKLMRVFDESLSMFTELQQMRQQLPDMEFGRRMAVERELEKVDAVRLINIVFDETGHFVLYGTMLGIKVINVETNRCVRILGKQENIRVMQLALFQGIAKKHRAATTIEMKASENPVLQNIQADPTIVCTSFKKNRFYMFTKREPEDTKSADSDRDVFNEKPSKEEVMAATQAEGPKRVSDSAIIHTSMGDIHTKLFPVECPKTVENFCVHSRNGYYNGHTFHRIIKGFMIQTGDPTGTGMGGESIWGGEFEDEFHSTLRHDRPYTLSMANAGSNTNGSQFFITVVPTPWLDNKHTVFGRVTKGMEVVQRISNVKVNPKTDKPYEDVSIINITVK
Kind of experiment: chymotrypsin coupled PPIase assay, PPWD1 inhibition. The procedure:
as §1, §2

A further experiment concerns the target CypH (Homo sapiens, UniProt O43447). Kind of experiment: chymotrypsin coupled PPIase assay, CypH inhibition. The procedure:
as §1, §2

For experiment [1], the system named is 10 other cyclophilins with reported prolyl isomerase activity. Kind of experiment: cyclophilin specificity screen: CypD against the other cyclophilins. An excerpt:
The selectivity of a compound described herein in inhibiting the activity of a first cyclophilin (e.g., CypD) over a second cyclophilin may be measured by the quotient of the IC50 value of the compound in inhibiting the activity of the second cyclophilin over the IC50 value of the compound in inhibiting the activity of the first cyclophilin. The selectivity of a compound described herein in modulating the activity of a first cyclophilin over a second cyclophilin may also be measured by the quotient of the Kd value of an adduct of the compound and the second cyclophilin over the Kd value of an adduct of the compound and the first cyclophilin (e.g., CypD). […] In certain embodiments, selectivity for inhibiting a first cyclophilin over other cyclophilins is measured by Surface Plasmon Resonance (SPR) assays as disclosed in the Examples.
Following the synthesis of the indicated library members, in vitro inhibition (IC50) assays of these hits were conducted to obtain IC50 inhibitory data. For the IC50 assays, a chymotrypsin coupled PPIase assay using Suc-AAPF-AMC as the peptide substrate was used, whereby isomerization of a peptide substrate Suc-AAPF-AMC from the cis to trans conformation allowed for proteolysis via excess a-chymotrypsin, releasing the C-terminal coumarin fluorophore.
Subsequently, to determine if the compounds could both access the S2 pocket and display CypD specificity, JOMBtrans and compound 49 were screened against the 10 other cyclophilins with reported prolyl isomerase activity. […] Co-crystal structures of JOMBtrans and 49 were solved with CypD.

Sequence of CypH (O43447 whole entry): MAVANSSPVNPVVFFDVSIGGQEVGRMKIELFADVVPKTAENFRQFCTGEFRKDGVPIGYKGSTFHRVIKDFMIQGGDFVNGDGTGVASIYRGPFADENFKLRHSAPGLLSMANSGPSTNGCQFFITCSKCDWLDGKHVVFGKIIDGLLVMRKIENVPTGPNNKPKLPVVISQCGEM

With `NCCOCCNC(=O)[C@@H]1CCNC(=O)/C=C/C(=O)N2CCC[C@H](C2)C(=O)N[C@@H](Cc2ccc(C(=O)c3ccccc3)cc2)C(=O)NCc2ccccc2CC(=O)N1` [compound 27], the “inhibition of CypG” value against CypG is “Almost complete ablation of inhibition profiles”. Also, on PPWD1, the “inhibition of PPWD1” value is recorded as “Almost complete ablation of inhibition profiles”. For the same molecule, the “inhibition of CypH” value at CypH is listed as “Almost complete ablation of inhibition profiles”. Besides, in experiment [1], the “specificity / selectivity profile for CypD (in words)” value is recorded as “improvement in specificity for CypD”.
